According to publication PMC8208785, “Therapeutic efficacy of novel memantine nitrate MN‐08 in animal models of Alzheimer’s disease” (Aging Cell, 2021):

Key:
[1] = system: APP/PS1 mice; assay: behavioral tests (SDA, NOR, MWM), prevention study in APP/PS1 mice; type: in vivo; details: 6 mg/kg gastric gavage, ages 2 to 8 months
Description: APP/PS1 transgenic mice were purchased from Jackson Laboratory and reproduced in the Shenzhen Center for Disease Control and Prevention (Shenzhen, China). Two‐month‐old APP/PS1 mice were divided into four groups: (1) APP/PS1 + Vehicle group; (2) APP/PS1 + MN‐08 (6 mg/kg) group; (3) APP/PS1 + Memantine (Mem, 5 mg/kg) group; (4) APP/PS1 + Donepezil (Done, 1.3 mg/kg, once daily) group; (5) Two‐month‐old C57BL/6J mice as a control group. The APP/PS1 mice were administered drugs twice a day (Done, once daily) by gastric gavage from ages 2 to 8 months for 6 months successively. Control and vehicle groups received equal volumes of saline.
The step-down avoidance (SDA) test was performed as previously described (Zhou et al., 2019). During the training phase, mice were singly placed on a metal floor with electrical stimulation (35 V) for 5 min. After 24 hours, the mouse was positioned on a wooden platform, while the metal floor at the bottom delivered an electrical shock (35 V) for another 5 min. The time for the animal to step down from the wooden platform were recorded as the step-down latency to evaluate retention memory.
Hippocampus-dependent spatial memory was determined by the Morris water maze (MWM) test according to the protocol described in a previous study (Jiao et al., 2015). The MWM test includes a platform training phase and a probe trial phase. An escape platform was placed in a fixed spatial location. During the training phase, each animal was placed at one of four different starting positions and tested four times a day with an interval of approximately 30 min. The animal in the water was immediately removed when it swam to the escape platform within 60 s. […] After the training phase, the probe trial was performed on the sixth day when the platform was removed. The animal was placed in the same starting position in the pool and allowed to move freely for 2 min. The animal swimming track was recorded and analyzed with a digital camera.
The novel object recognition test was performed to assess non-spatial working memory according to previously published protocols (Choi et al., 2011). Firstly, each animal was sequentially placed into a square box (50 × 50 × 50 cm, length × width × height) without any objects for 10 min per day for 2 continuous days to habituate to the environment. Then, two identical objects were placed parallel near one wall of the square box. Animals were placed singly in the box and allowed to explore the objects for 10 min. […] The time each animal took to examine the familiar object and novel object was recorded by digital camera. The discrimination index was calculated according to the following expression: (novel object (s) - familiar object (s))/ (novel object (s) + familiar object (s)). […]

[2] = system: 3×Tg‐AD mice; assay: Aβ ELISA and Western blotting of APP-processing proteins in 3×Tg-AD mice; type: in vivo
Description: Triple transgenic 3×Tg‐AD mice were acquired from Jackson Laboratory and fostered in the Shenzhen Center for Disease Control and Prevention (Shenzhen, China). Eight‐month‐old 3×Tg‐AD mice were categorized into six groups: (1) 3×Tg‐AD +Vehicle group; (2) 3×Tg‐AD +MN‐08 (3 mg/kg) group; (3) 3×Tg‐AD +MN‐08 (6 mg/kg) group; (4) 3×Tg‐AD +MN‐08 (12 mg/kg) group; (5) 3×Tg‐AD +Memantine (Mem, 5 mg/kg) group; (6) 3×Tg‐AD +Donepezil (Done, 1.3 mg/kg, once daily) group; (7) Eight‐month‐old B6129SF2/J mice as a control group. MN‐08 and memantine were given twice daily (Done, once daily) by gastric gavage for 4 months from 8 months of age.
To evaluate the concentration of soluble and insoluble Aβ in AD mice, the hippocampus and cortex were homogenized in the lysate, which was then centrifuged at 12000 g for 30 min at 4°C. Supernatant samples were collected as soluble Aβ. Sediment of the cortex and hippocampus was resuspended with formic acid, incubated on ice for 60 min and then centrifuged at 12,000 g for 30 min at 4°C. The supernatant and Tris/NaH2PO4 buffer were mixed as insoluble Aβ. The concentration of Aβ was analyzed by ELISA kit of human amyloid β (R&D Systems, Minneapolis, MN, USA) following the manufacturer’s instructions.
Western blotting analysis was performed as previously described with minor modifications (Huang, Li, & Nan, 2017). Proteins were extracted from hippocampal tissue and their concentrations determined by the BCA protein assay kit (Fdbio science, Hangzhou, China). The protein (20 μg) was separated on a 12% SDS-PAGE gel and then transferred to PVDF membranes. The membranes were blocked using 5 % nonfat dry milk for 2 h. The protein blots were incubated with the corresponding primary antibodies against p-Akt (#4060, 1:1000, Cell Signaling Technology), Akt (#4685, 1:1000, Cell Signaling Technology), BACE1 (#5606, 1:1000, Cell Signaling Technology), PS1 (#5643, 1:1000, Cell Signaling Technology), p-GSK3β (#5558, 1:1000, Cell Signaling Technology), GSK3β (#12456, 1:1000, Cell Signaling Technology), Bcl-2 (#3498, 1:1000, Cell Signaling Technology), Bax (#5023, 1:1000, Cell Signaling Technology), Cleaved caspase-3 (#9661, 1:1000, Cell Signaling Technology), Caspase-3 (#9662, 1:1000, Cell Signaling Technology), ADAM10 (#14194, 1:1000, Cell Signaling Technology), APP (#ab241592, 1:1000, Abcam), sAPPα (#ab126723, 1:1000, Abcam), NEP (#ab216341, 1:1000, Abcam), Synapsin I (#ab64581, 1:1000, Abcam), Synapsin II (#ab76494, 1:1000, Abcam), NR2A (#ab124913, 1:2000, Abcam), PSD95 (#ab18258, 1:1000, Abcam), Synaptophysin (#ab32127, 1:1000, Abcam), IDE (#ab133561, 1:1000, Abcam), Drebin (#ab178408, 1:1000, Abcam) and Tau-5 (#ab80579, 1:2000, Abcam) overnight at 4°C. After washing 3 times, the membranes were incubated with the respective HRP-conjugated secondary antibody. ECL Western blotting Detection Reagents (Fdbio science, Hangzhou, China) were used to perform Chemiluminescence detection. Quantitative analysis of protein bands was conducted by the Carestream system (Carestream Health, Inc, USA).

[3] = MN‐08 6 mg/kg, hippocampi, Western blot

CCC12CC3CC(N)(C1)CC(CO[N+](=O)[O-])(C3)C2 (stereo not drawn) [MN‐08]
escape latency in Morris water maze test [1]: markedly shortened
number of crossings in Morris water maze test [1]: increased
discrimination index in novel object recognition (NOR) test ([1]; vs vehicle): significantly increased
latency in step‐down avoidance (SDA) test ([1]; vs vehicle): significantly increased
Aβ accumulation (ELISA) ([2]; MN‐08 6 mg/kg, hippocampal and cortical areas): significant reduction
expression of total APP [2, 3]: significantly decreased
expression of α‐secretase (ADAM10) and neprilysin (NEP) [2, 3]: enhanced
levels of sAPPα [2, 3]: increasing
expression of IDE, PS1, or BACE1 ([2]; hippocampi, Western blot): no effect
